{
  "source": "patent US20120034193A1",
  "about": "“TREATMENT OF NEUROTROPHIC FACTOR MEDIATED DISORDERS” (priority 2009, published 2012)",
  "key": {"Progesterone PR-B": {"target": "Progesterone PR-B (Homo sapiens, UniProt P06401)", "assay": "Binding assay", "conditions": "smilagenin 1 μM", "in_short": "(§1)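 Values are % inhibition of specific binding of a radiolabelled ligand by 1 μM compound, measured in homogenates of tissue or cells expressing the receptor after free label had been washed away.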"}, "GABAB1B": {"target": "T1, GABAB1B (Homo sapiens, UniProt Q9UBS5)", "T1 construct": "host or cells: tissue or cell homogenate (not specified)", "assay": "Binding assay", "conditions": "smilagenin 1 μM", "in_short": "as §1"}, "Neuropeptide Y Y2": {"target": "Neuropeptide Y Y2 (Homo sapiens, UniProt P49146)", "sequence (P49146 whole entry)": "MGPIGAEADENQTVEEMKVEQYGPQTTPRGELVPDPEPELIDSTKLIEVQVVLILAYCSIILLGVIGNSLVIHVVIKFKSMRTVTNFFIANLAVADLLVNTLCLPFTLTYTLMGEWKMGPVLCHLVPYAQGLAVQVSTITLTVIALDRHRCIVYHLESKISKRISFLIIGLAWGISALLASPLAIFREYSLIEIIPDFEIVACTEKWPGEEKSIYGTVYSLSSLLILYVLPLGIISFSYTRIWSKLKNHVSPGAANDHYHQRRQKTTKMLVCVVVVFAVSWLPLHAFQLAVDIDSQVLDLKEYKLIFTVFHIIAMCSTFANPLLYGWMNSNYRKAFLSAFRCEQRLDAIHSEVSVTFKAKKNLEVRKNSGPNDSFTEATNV", "assay": "Binding assay", "conditions": "smilagenin 1 μM", "in_short": "as §1"}, "[1]": {"target": "T2, Vasoactive Intestinal Peptide, VIP1 (Homo sapiens, UniProt P32241)", "T2 construct": "host or cells: tissue or cell homogenate, not specified", "T2 sequence (P32241 31-457)": "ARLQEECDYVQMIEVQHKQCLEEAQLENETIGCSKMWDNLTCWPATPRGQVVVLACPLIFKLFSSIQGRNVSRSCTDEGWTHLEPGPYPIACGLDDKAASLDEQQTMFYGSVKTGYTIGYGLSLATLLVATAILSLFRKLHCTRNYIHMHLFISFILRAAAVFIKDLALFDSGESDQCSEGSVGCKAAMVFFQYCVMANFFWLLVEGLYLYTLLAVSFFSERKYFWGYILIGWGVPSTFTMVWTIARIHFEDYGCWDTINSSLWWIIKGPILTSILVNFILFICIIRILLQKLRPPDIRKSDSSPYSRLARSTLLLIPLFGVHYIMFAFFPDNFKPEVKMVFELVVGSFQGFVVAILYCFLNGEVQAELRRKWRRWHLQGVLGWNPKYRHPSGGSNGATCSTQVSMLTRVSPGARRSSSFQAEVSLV", "assay": "Binding assay", "conditions": "smilagenin 1 μM", "in_short": "as §1"}, "Somatostatin sstl": {"target": "Somatostatin sstl (Homo sapiens, UniProt P30872)", "assay": "Binding assay", "conditions": "smilagenin 1 μM", "in_short": "as §1"}, "Vasopressin V1A": {"target": "T3, Vasopressin V1A (Homo sapiens, UniProt P37288)", "T3 construct": "host or cells: tissue or cell homogenate, not specified", "T3 sequence (P37288 whole entry)": "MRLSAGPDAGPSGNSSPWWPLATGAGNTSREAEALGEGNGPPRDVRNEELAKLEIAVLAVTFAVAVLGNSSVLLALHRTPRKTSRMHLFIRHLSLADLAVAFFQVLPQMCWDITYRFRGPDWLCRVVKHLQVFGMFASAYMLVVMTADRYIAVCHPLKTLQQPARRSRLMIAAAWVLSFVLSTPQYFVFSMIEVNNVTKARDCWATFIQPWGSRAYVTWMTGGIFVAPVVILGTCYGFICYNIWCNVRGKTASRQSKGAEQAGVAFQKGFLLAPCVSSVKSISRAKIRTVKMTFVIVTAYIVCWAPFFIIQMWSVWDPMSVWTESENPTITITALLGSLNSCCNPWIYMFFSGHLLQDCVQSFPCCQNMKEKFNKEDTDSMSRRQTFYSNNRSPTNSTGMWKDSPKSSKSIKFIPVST", "assay": "Binding assay", "conditions": "smilagenin 1 μM", "in_short": "as §1"}, "[2]": {"target": "Thyrotropin Releasing Hormone (TRH) (Rattus norvegicus, UniProt Q01717)", "assay": "Binding assay", "conditions": "smilagenin 1 μM", "in_short": "as §1"}, "Melanocortin MC1": {"target": "Melanocortin MC1 (Homo sapiens, UniProt Q01726)", "assay": "Binding assay", "conditions": "smilagenin 1 μM", "in_short": "as §1"}, "Vanilloid": {"target": "T4, Vanilloid (Rattus norvegicus, UniProt O35433)", "T4 construct": "host or cells: tissue or cell homogenate, not specified", "T4 sequence (O35433 whole entry)": "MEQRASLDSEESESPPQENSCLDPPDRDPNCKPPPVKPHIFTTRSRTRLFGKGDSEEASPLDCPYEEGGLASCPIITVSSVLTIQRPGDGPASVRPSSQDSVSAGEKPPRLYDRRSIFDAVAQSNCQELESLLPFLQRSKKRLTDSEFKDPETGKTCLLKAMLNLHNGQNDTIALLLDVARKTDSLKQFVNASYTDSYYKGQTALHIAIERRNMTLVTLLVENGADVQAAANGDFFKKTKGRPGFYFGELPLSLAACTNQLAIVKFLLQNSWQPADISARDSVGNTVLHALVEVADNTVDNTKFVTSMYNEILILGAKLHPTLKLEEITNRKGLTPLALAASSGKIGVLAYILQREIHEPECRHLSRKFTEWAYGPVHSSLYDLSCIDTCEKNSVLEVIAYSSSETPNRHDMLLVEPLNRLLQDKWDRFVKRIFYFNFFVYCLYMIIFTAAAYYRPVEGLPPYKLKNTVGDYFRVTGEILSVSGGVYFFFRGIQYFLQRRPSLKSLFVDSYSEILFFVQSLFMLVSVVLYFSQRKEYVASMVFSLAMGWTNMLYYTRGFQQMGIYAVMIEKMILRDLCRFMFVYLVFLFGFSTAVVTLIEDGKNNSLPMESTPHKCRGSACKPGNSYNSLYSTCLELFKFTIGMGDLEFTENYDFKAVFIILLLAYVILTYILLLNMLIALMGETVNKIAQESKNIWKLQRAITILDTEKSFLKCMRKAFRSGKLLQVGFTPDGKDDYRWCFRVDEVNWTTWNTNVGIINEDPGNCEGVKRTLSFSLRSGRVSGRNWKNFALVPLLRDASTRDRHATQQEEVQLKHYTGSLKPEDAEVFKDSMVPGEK", "assay": "Binding assay", "conditions": "smilagenin 1 μM", "in_short": "as §1"}, "Colchicine": {"test_system": "Colchicine", "assay": "Binding assay", "conditions": "smilagenin 1 μM", "in_short": "as §1"}, "Melanocortin MC4": {"target": "Melanocortin MC4 (Homo sapiens, UniProt P32245)", "sequence (P32245 whole entry)": "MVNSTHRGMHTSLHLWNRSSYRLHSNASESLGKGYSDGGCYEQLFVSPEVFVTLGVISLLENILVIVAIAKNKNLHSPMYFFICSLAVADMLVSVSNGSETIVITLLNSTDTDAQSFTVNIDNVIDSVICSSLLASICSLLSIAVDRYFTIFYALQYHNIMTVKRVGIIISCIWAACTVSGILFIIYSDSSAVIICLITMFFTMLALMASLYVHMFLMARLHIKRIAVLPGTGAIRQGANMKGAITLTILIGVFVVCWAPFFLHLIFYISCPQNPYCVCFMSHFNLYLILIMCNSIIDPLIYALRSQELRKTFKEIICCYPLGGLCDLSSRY", "assay": "Binding assay", "conditions": "smilagenin 1 μM", "in_short": "as §1"}, "[3]": {"target": "5-Hydroxytryptamine, 5-HT1A (Homo sapiens, UniProt P08908)", "sequence (P08908 whole entry)": "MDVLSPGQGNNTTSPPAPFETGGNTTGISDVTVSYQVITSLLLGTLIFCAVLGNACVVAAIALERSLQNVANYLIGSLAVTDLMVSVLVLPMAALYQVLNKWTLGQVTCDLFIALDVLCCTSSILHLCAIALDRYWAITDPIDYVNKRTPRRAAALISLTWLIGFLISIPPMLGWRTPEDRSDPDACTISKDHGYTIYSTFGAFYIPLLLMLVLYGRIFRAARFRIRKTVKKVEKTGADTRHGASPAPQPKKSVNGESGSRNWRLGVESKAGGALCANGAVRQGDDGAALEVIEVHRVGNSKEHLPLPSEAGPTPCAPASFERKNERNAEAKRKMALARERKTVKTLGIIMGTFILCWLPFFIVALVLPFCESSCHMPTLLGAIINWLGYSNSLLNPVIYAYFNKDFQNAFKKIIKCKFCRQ", "assay": "Binding assay", "conditions": "smilagenin 1 μM", "in_short": "as §1"}, "Vitamin D3": {"target": "T5, Vitamin D3 (Homo sapiens, UniProt P11473)", "T5 construct": "host or cells: tissue or cell homogenate, not specified", "assay": "Binding assay", "conditions": "smilagenin 1 μM", "in_short": "as §1"}, "Muscarinic M1": {"target": "T6, Muscarinic M1 (Homo sapiens, UniProt P11229)", "T6 construct": "host or cells: tissue or cell homogenate, not specified", "assay": "Binding assay", "conditions": "smilagenin 1 μM", "in_short": "as §1"}, "[4]": {"target": "T7, Transporter, Norepinephrine (NET) (Homo sapiens, UniProt P23975)", "T7 construct": "host or cells: tissue or cell homogenate, not specified", "assay": "Binding assay", "conditions": "smilagenin 1 μM", "in_short": "as §1"}, "Leukotriene, BLT (LTB4)": {"target": "Leukotriene, BLT (LTB4) (Homo sapiens, UniProt Q15722)", "assay": "Binding assay", "conditions": "smilagenin 1 μM", "in_short": "as §1"}, "Opiate κ (OP2, KOP)": {"target": "Opiate κ (OP2, KOP) (Homo sapiens, UniProt P41145)", "sequence (P41145 whole entry)": "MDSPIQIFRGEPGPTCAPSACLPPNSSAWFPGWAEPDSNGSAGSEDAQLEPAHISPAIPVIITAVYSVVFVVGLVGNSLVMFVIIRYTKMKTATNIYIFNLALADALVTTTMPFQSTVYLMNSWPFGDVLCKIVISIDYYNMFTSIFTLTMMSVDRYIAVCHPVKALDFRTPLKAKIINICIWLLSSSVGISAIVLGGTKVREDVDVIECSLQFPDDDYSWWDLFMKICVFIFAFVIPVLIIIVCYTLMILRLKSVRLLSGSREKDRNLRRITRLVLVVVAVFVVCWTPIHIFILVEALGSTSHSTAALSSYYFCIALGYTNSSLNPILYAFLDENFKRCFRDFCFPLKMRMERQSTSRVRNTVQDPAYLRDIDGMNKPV", "assay": "Binding assay", "conditions": "smilagenin 1 μM", "in_short": "as §1"}, "Somatostatin sst5": {"target": "Somatostatin sst5 (Homo sapiens, UniProt P35346)", "sequence (P35346 whole entry)": "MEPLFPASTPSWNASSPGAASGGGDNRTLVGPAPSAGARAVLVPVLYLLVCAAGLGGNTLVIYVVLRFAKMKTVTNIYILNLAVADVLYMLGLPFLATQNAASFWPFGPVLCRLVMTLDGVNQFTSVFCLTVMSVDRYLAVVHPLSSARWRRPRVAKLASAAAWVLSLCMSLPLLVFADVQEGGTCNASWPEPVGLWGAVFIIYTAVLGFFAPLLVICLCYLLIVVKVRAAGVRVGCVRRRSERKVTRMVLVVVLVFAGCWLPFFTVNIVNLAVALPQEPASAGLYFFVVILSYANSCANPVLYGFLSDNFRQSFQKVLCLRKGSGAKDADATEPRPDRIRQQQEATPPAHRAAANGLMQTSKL", "assay": "Binding assay", "conditions": "smilagenin 1 μM", "in_short": "as §1"}, "[5]": {"target": "5-Hydroxytryptamine, 5-HT5A (Homo sapiens, UniProt P47898)", "sequence (P47898 whole entry)": "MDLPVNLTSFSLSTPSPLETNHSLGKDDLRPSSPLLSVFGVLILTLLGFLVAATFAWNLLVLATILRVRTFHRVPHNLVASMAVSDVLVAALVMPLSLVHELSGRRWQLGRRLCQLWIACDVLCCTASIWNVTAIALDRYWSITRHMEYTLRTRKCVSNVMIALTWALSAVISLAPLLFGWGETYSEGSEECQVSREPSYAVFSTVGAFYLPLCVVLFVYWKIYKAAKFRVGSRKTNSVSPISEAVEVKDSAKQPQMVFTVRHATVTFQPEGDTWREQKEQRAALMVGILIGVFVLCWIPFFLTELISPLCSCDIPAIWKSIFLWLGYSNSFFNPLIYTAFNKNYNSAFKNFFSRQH", "assay": "Binding assay", "conditions": "smilagenin 1 μM", "in_short": "as §1"}, "Chemokine CCR5": {"target": "Chemokine CCR5 (Homo sapiens, UniProt P51681)", "sequence (P51681 whole entry)": "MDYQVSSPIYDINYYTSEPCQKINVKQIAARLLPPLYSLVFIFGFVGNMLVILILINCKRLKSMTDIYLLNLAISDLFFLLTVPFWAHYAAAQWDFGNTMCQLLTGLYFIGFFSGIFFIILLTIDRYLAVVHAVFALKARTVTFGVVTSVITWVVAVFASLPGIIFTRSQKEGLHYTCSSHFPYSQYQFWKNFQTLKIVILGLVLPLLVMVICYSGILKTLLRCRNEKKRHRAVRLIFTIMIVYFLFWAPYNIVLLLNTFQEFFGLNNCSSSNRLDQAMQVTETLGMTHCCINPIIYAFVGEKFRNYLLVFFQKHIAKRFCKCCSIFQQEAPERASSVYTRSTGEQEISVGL", "assay": "Binding assay", "conditions": "smilagenin 1 μM", "in_short": "as §1"}, "Chemokine CCR2B": {"target": "Chemokine CCR2B (Homo sapiens, UniProt P41597)", "sequence (P41597 1-360 isoform P41597-2)": "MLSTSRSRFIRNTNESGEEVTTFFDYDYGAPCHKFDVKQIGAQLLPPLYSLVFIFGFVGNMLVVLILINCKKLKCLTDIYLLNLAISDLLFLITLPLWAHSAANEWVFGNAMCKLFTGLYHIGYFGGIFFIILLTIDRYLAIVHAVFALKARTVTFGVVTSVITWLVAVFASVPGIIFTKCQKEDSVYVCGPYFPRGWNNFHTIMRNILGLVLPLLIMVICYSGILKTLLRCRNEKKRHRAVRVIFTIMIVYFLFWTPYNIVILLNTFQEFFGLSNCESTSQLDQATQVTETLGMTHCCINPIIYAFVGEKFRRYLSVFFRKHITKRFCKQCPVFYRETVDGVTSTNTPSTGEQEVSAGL", "assay": "Binding assay", "conditions": "smilagenin 1 μM", "in_short": "as §1"}, "[6]": {"target": "Cholecystokinin CCK1 (CCKA) (Homo sapiens, UniProt P32238)", "assay": "Binding assay", "conditions": "smilagenin 1 μM", "in_short": "as §1"}, "Glutamate, NMDA, Agonism": {"test_system": "Glutamate, NMDA, Agonism", "assay": "Binding assay", "parameters": "species or system Rat", "conditions": "smilagenin 1 μM", "method": "(§2) The receptor binding was investigated using the following method: Sarsasapogenin was incubated with tissue or cell homogenate that expressed the receptor of interest and a known concentration a radiolabelled compound with affinity for the receptor of interest. After the incubation period the non-bound radiolabelled compound was removed and the amount of specific binding was quantified. The amount of specific binding in the presence and absence of sarsasapogenin were compared and the percent inhibition of the binding of the radiolabelled compound by sarsasapogenin was calculated. The source of the receptor, the incubation conditions, the radiolabelled compound used varied depending on each specific assay.\n(§3) Using the same methods as described above, the binding of smilagenin (1 μM) to the receptors listed in Table 2 below, and the effect of smilagenin on the activity of the enzymes listed in Table 2 below, were investigated."}, "Transporter, GABA": {"test_system": "Transporter, GABA", "assay": "Binding assay", "parameters": "species or system Rat", "conditions": "smilagenin 1 μM", "method": "as §2, §3"}, "[7]": {"test_system": "Glutamate, NMDA, Polyamine", "assay": "Binding assay", "parameters": "species or system Rat", "conditions": "smilagenin 1 μM", "method": "as §2, §3"}, "MPTP-lesioned macaques": {"test_system": "MPTP-lesioned macaques", "assay": "Parkinsonian disability in MPTP-lesioned macaques", "assay_type": "in vivo, Macaca fascicularis", "method": "(§4) Nineteen female cynomolgus monkeys (Macaca fascicularis, 3.0-4.5 kg, 4-6 years old) were acclimatised to the experimental setting and procedures for 3 months and baseline behaviour was assessed in all animals. Fourteen female macaques received MPTP (0.2 mg/kg/day, s.c.) until marked, stable, parkinsonian symptoms developed. Animals (n=7/group) were randomly assigned to two groups; smilagenin (20 mg/kg/day, p.o.) or vehicle control (HPMC, 0.5% w/v containing Tween 80, 0.2% v/v).\n(§5) Assessments of parkinsonian disability were made after MPTP administration and following 18 weeks of smilagenin or vehicle administration. Parkinsonian disability was evaluated by post hoc analysis of DVD-recordings by a neurologist blinded to the treatment. At the end of the study the brains were removed and the levels of unbound GDNF and BDNF in the putamen were measured using Multiplex ELISA/Aushon assays. The MPTP treated macaques used in this experiment thus provide an accepted model for Parkinson's disease and similar motor-sensory neurodegenerative conditions."}, "GDNF": {"test_system": "GDNF", "assay": "Unbound GDNF in the putamen of MPTP-lesioned macaques", "assay_type": "in vivo, Macaca fascicularis", "conditions": "smilagenin 20 mg/kg/day p.o., 18 weeks; control 9.52, MPTP 15.33", "method": "as §4, §5"}, "Nicotinic Acetylcholine": {"test_system": "Nicotinic Acetylcholine", "assay": "Binding assay", "parameters": "species or system Human", "conditions": "smilagenin 1 μM", "method": "as §2, §3"}, "Chemokine CXCR1": {"test_system": "Chemokine CXCR1", "assay": "Binding assay", "parameters": "species or system Human", "conditions": "smilagenin 1 μM", "method": "as §2, §3"}, "[8]": {"test_system": "Vascular Endothelial Growth Factor (VEGF)", "assay": "Binding assay", "parameters": "species or system Human", "conditions": "smilagenin 1 μM", "method": "as §2, §3"}, "[9]": {"test_system": "Tumour Necrosis Factor (TNF), non-selective", "assay": "Binding assay", "parameters": "species or system Human", "conditions": "smilagenin 1 μM", "method": "as §2, §3"}},
  "note": "Marks after values point to notes of the source that are not given here.",
  "data": [
    {"smiles": "C[C@@H]1CC[C@@]2(OC1)O[C@H]1C[C@H]3[C@@H]4CC[C@@H]5C[C@@H](O)CC[C@]5(C)[C@H]4CC[C@]3(C)[C@H]1[C@@H]2C", "note": "[Smilagenin, smilagenin]", "values": [
      {"measurement": "Effect (%)", "setting": "Progesterone PR-B", "value": "NS (NS = No significant response. Significance was taken as ≧30% stimulation or inhibition)"},
      {"measurement": "Effect (%)", "setting": "GABAB1B", "value": "NS (NS = No significant response. Significance was taken as ≧30% stimulation or inhibition)"},
      {"measurement": "Effect (%)", "setting": "Neuropeptide Y Y2", "value": "NS (NS = No significant response. Significance was taken as ≧30% stimulation or inhibition)"},
      {"measurement": "Effect (%)", "setting": "[1]", "value": "NS (NS = No significant response. Significance was taken as ≧30% stimulation or inhibition)"},
      {"measurement": "Effect (%)", "setting": "Somatostatin sstl", "value": "NS (NS = No significant response. Significance was taken as ≧30% stimulation or inhibition)"},
      {"measurement": "Effect (%)", "setting": "Vasopressin V1A", "value": "NS (NS = No significant response. Significance was taken as ≧30% stimulation or inhibition)"},
      {"measurement": "Effect (%)", "setting": "[2]", "value": "NS (NS = No significant response. Significance was taken as ≧30% stimulation or inhibition)"},
      {"measurement": "Effect (%)", "setting": "Melanocortin MC1", "value": "NS (NS = No significant response. Significance was taken as ≧30% stimulation or inhibition)"},
      {"measurement": "Effect (%)", "setting": "Vanilloid", "value": "NS (NS = No significant response. Significance was taken as ≧30% stimulation or inhibition)"},
      {"measurement": "Effect (%)", "setting": "Colchicine", "value": "NS (NS = No significant response. Significance was taken as ≧30% stimulation or inhibition)"},
      {"measurement": "Effect (%)", "setting": "Melanocortin MC4", "value": "NS (NS = No significant response. Significance was taken as ≧30% stimulation or inhibition)"},
      {"measurement": "Effect (%)", "setting": "[3]", "value": "NS (NS = No significant response. Significance was taken as ≧30% stimulation or inhibition)"},
      {"measurement": "Effect (%)", "setting": "Vitamin D3", "value": "NS (NS = No significant response. Significance was taken as ≧30% stimulation or inhibition)"},
      {"measurement": "Effect (%)", "setting": "Muscarinic M1", "value": "NS (NS = No significant response. Significance was taken as ≧30% stimulation or inhibition)"},
      {"measurement": "Effect (%)", "setting": "[4]", "value": "NS (NS = No significant response. Significance was taken as ≧30% stimulation or inhibition)"},
      {"measurement": "Effect (%)", "setting": "Leukotriene, BLT (LTB4)", "value": "NS (NS = No significant response. Significance was taken as ≧30% stimulation or inhibition)"},
      {"measurement": "Effect (%)", "setting": "Opiate κ (OP2, KOP)", "value": "NS (NS = No significant response. Significance was taken as ≧30% stimulation or inhibition)"},
      {"measurement": "Effect (%)", "setting": "Somatostatin sst5", "value": "NS (NS = No significant response. Significance was taken as ≧30% stimulation or inhibition)"},
      {"measurement": "Effect (%)", "setting": "[5]", "value": "NS (NS = No significant response. Significance was taken as ≧30% stimulation or inhibition)"},
      {"measurement": "Effect (%)", "setting": "Chemokine CCR5", "value": "NS (NS = No significant response. Significance was taken as ≧30% stimulation or inhibition)"},
      {"measurement": "Effect (%)", "setting": "Chemokine CCR2B", "value": "NS (NS = No significant response. Significance was taken as ≧30% stimulation or inhibition)"},
      {"measurement": "Effect (%)", "setting": "[6]", "value": "NS (NS = No significant response. Significance was taken as ≧30% stimulation or inhibition)"},
      {"measurement": "Effect (%)", "setting": "Glutamate, NMDA, Agonism", "value": "NS (NS = No significant response. Significance was taken as ≧30% stimulation or inhibition)"},
      {"measurement": "Effect (%)", "setting": "Transporter, GABA", "value": "NS (NS = No significant response. Significance was taken as ≧30% stimulation or inhibition)"},
      {"measurement": "Effect (%)", "setting": "[7]", "value": "NS (NS = No significant response. Significance was taken as ≧30% stimulation or inhibition)"},
      {"measurement": "Median parkinsonian disability post-MPTP administration", "setting": "MPTP-lesioned macaques; baseline of the smilagenin group, before dosing", "value": 47.17},
      {"measurement": "Median parkinsonian disability at week 18", "setting": "MPTP-lesioned macaques; smilagenin 20 mg/kg/day p.o., 18 weeks, MPTP vehicle group 41.67", "value": "27.00^###"},
      {"measurement": "Mean ± s.e.mean of unbound GDNF level in the putamen (pg/mg protein)", "setting": "GDNF", "value": "5.09 ± 1.35", "unit": "pg/mg protein"},
      {"measurement": "Effect (%)", "setting": "Nicotinic Acetylcholine", "value": "NS (NS = No significant response. Significance was taken as ≧30% stimulation or inhibition)"},
      {"measurement": "Effect (%)", "setting": "Chemokine CXCR1", "value": "NS (NS = No significant response. Significance was taken as ≧30% stimulation or inhibition)"},
      {"measurement": "Effect (%)", "setting": "[8]", "value": "NS (NS = No significant response. Significance was taken as ≧30% stimulation or inhibition)"},
      {"measurement": "Effect (%)", "setting": "[9]", "value": "NS (NS = No significant response. Significance was taken as ≧30% stimulation or inhibition)"}
    ]}
  ]
}
